From ChEMBL document CHEMBL1201862, “PubChem BioAssay data set” (2004)
Activity calls are given as the source filed them.

Experiments:
[1] = target: T1, Nucleotide-binding oligomerization domain-containing protein 1 (Homo sapiens, UniProt Q9Y239); experiment: blockers of NOD1 pathway activity – revised, SAR follow-up (AID 2333); assay type: functional
T1 sequence (Q9Y239 whole entry): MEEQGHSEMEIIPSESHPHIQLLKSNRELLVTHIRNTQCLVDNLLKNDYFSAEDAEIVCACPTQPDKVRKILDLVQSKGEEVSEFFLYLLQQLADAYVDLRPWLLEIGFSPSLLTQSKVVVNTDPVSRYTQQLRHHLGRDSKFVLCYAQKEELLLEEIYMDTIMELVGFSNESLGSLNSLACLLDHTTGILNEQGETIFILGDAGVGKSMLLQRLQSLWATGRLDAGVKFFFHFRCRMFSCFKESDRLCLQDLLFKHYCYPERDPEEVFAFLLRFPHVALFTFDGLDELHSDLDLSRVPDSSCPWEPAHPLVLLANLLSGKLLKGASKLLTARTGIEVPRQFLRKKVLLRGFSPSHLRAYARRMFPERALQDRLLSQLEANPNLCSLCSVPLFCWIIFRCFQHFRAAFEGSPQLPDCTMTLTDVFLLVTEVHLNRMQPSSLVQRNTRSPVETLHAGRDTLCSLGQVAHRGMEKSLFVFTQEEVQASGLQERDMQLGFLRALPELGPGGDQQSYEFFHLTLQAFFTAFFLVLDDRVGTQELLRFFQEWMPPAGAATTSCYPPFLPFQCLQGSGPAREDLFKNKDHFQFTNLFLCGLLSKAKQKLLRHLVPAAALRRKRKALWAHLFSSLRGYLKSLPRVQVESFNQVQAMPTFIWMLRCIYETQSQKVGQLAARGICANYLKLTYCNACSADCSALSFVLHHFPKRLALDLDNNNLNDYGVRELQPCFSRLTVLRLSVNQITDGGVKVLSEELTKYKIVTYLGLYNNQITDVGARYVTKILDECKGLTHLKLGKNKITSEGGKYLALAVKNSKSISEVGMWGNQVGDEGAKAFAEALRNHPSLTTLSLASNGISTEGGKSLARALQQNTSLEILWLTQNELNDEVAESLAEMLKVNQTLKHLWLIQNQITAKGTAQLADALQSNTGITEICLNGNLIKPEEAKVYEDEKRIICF

[2] = system: HEK293; experiment: cells; conditions: Homo sapiens;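 also: cells exposed to compound for 14 hours overnight before viability readout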
[3] = target: Tumor necrosis factor (Homo sapiens, UniProt P01375); experiment: analog potency on TNFa NF-kB signaling – cell-based, revised, SAR follow-up (AID 2337); assay type: functional
Tumor necrosis factor, sequence (P01375 whole entry, the tested form may be a part): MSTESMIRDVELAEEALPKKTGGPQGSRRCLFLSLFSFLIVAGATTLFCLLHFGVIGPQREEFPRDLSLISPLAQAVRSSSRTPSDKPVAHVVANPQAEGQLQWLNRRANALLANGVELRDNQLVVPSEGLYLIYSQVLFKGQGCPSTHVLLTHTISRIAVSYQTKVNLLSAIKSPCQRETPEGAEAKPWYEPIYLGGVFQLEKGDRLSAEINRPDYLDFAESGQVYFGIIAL

[4] = target: T2, RNA-binding protein pos-1 (Caenorhabditis elegans, UniProt G5EF15); experiment: disruptors of C. elegans POS-1 RNA interaction – biochemical, fluorescence polarization, dose response (AID 1964);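 also: purified POS-1 fused to maltose binding protein made in E. coli; potency of compounds blocking POS-1 binding to fluorescent RNA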
T2 sequence (G5EF15 whole entry): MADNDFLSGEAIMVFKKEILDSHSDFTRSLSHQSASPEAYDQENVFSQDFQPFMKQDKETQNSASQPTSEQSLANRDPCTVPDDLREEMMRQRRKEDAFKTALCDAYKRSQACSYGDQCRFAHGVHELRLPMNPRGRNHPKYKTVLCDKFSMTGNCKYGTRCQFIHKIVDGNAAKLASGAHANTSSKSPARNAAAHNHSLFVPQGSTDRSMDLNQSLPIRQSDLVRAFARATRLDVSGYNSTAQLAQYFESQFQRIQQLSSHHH

[5] = target: T3, E3 ubiquitin-protein ligase XIAP (Homo sapiens, UniProt P98170); experiment: Counter Screen using XIAP-Bir3 for Chemical Antagonists of Bir1/2 domains of IAP-family anti-apoptotic proteins. [Related pubchem assays (depositor defined):AID1018, AID1449, AID1514, AID1638, AID1749, AID1750, AID488957, AID488963]
T3 sequence (P98170 whole entry): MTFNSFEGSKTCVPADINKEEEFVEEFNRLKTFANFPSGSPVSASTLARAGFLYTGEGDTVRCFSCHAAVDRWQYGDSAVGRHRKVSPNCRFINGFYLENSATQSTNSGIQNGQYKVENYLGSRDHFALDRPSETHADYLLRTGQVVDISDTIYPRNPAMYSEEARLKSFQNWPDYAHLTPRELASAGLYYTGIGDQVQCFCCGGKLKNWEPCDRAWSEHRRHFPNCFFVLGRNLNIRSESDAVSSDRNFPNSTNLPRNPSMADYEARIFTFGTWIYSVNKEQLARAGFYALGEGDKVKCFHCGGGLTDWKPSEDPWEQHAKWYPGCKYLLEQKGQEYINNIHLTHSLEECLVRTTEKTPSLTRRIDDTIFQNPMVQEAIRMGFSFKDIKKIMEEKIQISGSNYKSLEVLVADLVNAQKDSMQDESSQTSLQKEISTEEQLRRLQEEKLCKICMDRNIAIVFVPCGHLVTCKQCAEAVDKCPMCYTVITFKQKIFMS

[6] = target: T4, Zinc finger protein mex-5 (Caenorhabditis elegans, UniProt Q9XUB2); experiment: potency of MEX-5 RNA-binding blockers – biochemical, C. elegans, fluorescence polarization, dose response (AID 1960)
T4 sequence (Q9XUB2 whole entry): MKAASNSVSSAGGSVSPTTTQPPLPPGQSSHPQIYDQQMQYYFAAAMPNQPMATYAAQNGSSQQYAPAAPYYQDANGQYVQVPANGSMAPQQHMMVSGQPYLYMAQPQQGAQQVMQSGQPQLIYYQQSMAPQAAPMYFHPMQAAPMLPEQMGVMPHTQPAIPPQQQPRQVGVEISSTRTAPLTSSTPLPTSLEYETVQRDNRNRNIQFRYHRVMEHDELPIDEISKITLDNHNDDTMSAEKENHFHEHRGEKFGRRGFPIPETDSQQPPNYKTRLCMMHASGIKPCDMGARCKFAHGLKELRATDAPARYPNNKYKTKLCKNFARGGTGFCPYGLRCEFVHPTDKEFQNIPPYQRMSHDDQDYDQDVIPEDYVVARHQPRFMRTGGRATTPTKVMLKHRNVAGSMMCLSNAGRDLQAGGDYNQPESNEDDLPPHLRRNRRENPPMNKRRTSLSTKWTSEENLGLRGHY

[7] = target: T3, E3 ubiquitin-protein ligase XIAP; experiment: small molecules displacing peptide from XIAP – biochemical, IAP family, fluorescence polarization (AID 1018); assay type: functional
[8] = target: T5, CAAX prenyl protease 2 (Homo sapiens, UniProt Q9Y256); experiment: inhibition of Ras-converting CAAX protease Rce1 – biochemical, yeast membranes, quenched-peptide fluorescence, cherry-pick, dose response (AID 588849)
T5 sequence (Q9Y256 whole entry): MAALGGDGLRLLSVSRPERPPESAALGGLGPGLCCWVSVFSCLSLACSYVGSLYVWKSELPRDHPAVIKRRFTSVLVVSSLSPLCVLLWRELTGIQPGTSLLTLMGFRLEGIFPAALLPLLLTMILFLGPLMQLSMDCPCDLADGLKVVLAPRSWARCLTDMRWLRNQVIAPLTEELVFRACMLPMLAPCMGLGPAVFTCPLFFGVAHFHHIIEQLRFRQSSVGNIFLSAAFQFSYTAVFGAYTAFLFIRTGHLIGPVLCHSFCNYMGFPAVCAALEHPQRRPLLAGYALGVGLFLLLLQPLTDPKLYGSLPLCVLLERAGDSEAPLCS

[9] = target: Trypsin (Sus scrofa, UniProt P00761); experiment: trypsin protease activity blockade – biochemical, quenched peptide fluorescence, cherry-pick, selectivity assay for Rce1 protease inhibitor project, dose response (AID 488789)
Trypsin, sequence (P00761 whole entry): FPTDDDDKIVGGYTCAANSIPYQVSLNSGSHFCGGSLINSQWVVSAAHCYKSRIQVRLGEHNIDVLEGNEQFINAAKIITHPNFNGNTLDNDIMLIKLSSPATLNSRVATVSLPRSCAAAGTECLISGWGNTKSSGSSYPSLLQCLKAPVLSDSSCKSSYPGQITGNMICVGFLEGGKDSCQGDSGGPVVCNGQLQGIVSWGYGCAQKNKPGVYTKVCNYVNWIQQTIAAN

[10] = target: T6, CAAX prenyl protease 2 (Saccharomyces cerevisiae S288c, UniProt Q03530); assay type: biochemical
T6 sequence (Q03530 whole entry): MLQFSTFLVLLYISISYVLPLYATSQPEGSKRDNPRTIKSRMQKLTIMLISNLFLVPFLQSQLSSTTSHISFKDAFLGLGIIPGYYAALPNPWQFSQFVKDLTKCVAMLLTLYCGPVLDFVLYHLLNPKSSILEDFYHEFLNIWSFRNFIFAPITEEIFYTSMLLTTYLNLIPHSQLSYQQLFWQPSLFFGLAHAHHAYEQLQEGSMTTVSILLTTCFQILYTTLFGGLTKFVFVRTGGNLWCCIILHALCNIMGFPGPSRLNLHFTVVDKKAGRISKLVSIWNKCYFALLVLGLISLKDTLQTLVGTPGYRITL

[11] = system: INS1; experiment: INS-1E survival protection against cytokine death – cell-based, luminescence, retest, dose response (AID 449756); assay type: functional; conditions: Rattus norvegicus;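 also: cell death triggered by IL-1 beta plus TNF-alpha plus IFN-gamma mixture; protective hits raise ATP signal compared with cytokine alone wells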
[12] = target: T7, Hexokinase HKDC1 (Homo sapiens, UniProt Q2TB90); experiment: inhibition of HKDC1 glucose phosphorylation – biochemical, W721R variant, dose response (AID 504729); assay type: functional
T7 sequence (Q2TB90 whole entry): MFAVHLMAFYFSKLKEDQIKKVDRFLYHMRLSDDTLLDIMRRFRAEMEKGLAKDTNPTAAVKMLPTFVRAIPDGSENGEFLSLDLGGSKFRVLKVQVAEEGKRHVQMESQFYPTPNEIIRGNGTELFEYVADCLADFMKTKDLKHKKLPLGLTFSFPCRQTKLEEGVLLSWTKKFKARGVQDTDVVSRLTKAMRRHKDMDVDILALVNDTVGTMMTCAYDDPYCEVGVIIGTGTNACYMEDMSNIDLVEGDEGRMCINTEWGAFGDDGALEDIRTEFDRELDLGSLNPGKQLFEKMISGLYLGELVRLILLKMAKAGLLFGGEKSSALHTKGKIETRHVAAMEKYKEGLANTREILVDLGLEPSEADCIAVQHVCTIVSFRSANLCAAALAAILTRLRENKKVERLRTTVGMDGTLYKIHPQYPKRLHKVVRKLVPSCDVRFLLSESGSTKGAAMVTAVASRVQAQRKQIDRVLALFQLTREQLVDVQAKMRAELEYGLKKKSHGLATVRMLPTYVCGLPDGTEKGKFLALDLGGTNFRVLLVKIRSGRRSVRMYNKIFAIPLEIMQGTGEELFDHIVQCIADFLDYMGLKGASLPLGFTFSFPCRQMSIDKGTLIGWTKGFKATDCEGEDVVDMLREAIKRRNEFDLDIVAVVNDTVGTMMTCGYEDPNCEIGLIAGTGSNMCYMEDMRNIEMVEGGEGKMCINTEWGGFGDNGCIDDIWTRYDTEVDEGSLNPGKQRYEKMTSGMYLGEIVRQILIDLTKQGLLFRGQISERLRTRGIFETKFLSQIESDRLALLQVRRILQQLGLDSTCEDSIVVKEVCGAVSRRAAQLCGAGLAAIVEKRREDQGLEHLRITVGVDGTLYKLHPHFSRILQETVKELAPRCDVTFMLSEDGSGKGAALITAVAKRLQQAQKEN

[13] = HPDE-C7 pancreatic duct cell viability loss – fluorescence, HTS (AID 430); assay type: functional, cell-based; conditions: Homo sapiens
[14] = viability loss of HPDE-C7K cells – cell-based, fluorescence, HTS, primary screen (AID 431); assay type: functional; conditions: Homo sapiens
[15] = THP-1 cell cytotoxicity, dose response, cytotoxicity control for non-replicating M. tuberculosis project (AID 489025); assay type: functional
[16] = cells; assay type: functional
[17] = HEK-293T viability loss, compound-treated – cell-based, uHTS hits, cytotoxicity control for B/T-cell NF-kB inhibitor project, dose response (AID 489019); assay type: functional;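 also: IC50 reflects cytotoxicity as loss of cell viability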
[18] = system: Jurkat; experiment: blockers of NF-kB activation in T cells – Jurkat, luciferase reporter, luminescence, B- and T-cell, dose response (AID 489004); assay type: functional, cell-based; conditions: Homo sapiens;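 also: NF-kB luciferase reporter Jurkat cells stimulated with PMA plus ionomycin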
[19] = reduction of Shn3 3'UTR-driven luciferase in osteoblasts – cell-based, Clone20 osteoblasts, firefly luciferase, cherry-picked, dose response (AID 624132); assay type: functional;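 also: firefly luciferase luminescence from reporter carrying the Shn3 3'UTR in osteoblasts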
[20] = NIH3T3 cell viability loss – ATP luminescence, mouse fibroblasts, counter-screen, dose response (AID 2010); assay type: functional, cell-based;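 also: cells exposed to compound for about 90 hours before reading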
[21] = non-specific 3'UTR reporter inhibition in Clone20-Shn3RL – cell-based, Renilla luciferase, cherry-picked, counter-screen for Shn3 inhibitor project, dose response (AID 624133); assay type: functional
[22] = Luminescence Cell-Based Dose Response HTS to Identify Inhibitors of 5'UTR Stem-Loop Driven Prion Protein mRNA Translation in H4 Neuroglioblastoma Cells. [Related pubchem assays: 1827 (Project Summary), 1813 (Primary HTS)]; assay type: functional
[23] = Trypanosoma cruzi growth suppression in host cells – NIH3T3 host cells, beta-gal luminescence, confirmation (AID 2044); assay type: functional, cell-based;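 also: intracellular parasites grown in NIH/3T3 mouse fibroblasts as host cells; luminescent beta-galactosidase reporter signal from transgenic T. cruzi replicating inside host cells; inhibitors lower the luminescence signal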
[24] = loss of viability in HepG2 cells – cell-based, CellTiter-Glo, cherry-picked, cytotoxicity control for Shn3 inhibitor project, dose response (AID 624134); assay type: functional
[25] = luciferase reporter signal suppression in cells – H4 neuroglioma cells, luminescence, dose response (AID 1990); assay type: functional, cell-based
[26] = alpha-synuclein stem-loop luciferase translation blockers – H4 neuroglioma cells, luminescence, confirmation (AID 1988); assay type: functional, cell-based

CC(=O)Nc1ccc(NC(=O)c2ccc(CN3CCc4ccccc4C3)cc2)cc1
IC50 [1]: > 20 µM (inactive) | IC50 [2]: > 20 µM (inactive) | IC50 [3]: > 20 µM (inactive)

Cc1cc(O)n2nc(N)c(N=Nc3ccccc3)c2n1
EC50 [4]: 37.8 µM (active) | IC50 [5]: > 100 µM (inactive) | EC50 [6]: 15.2 µM (active) | IC50 [7]: > 100 µM (not active)

COc1ccccc1-c1coc2c(CN3CCOCC3)c(O)ccc2c1=O
AC50 [8]: 11.8 µM (active) | AC50 [9]: 44.4 µM (active) | AC50 [10]: 52.5 µM (active)

Cc1cc(C)n2nc(SCc3nnc(SCc4ccccc4C)s3)nc2n1
AC50 [11]: 22.9 µM (active) | IC50 [12]: 5.17 µM (active)

O=C(Oc1cccc2cccnc12)c1ccc2c(c1)OCCO2
EC50 [13]: 5.8 µM (active) | EC50 [14]: 7.02 µM (active) | CC50 [15]: 22.8 µM (active) | IC50 [16]: 3.9 µM (active)

C=CCn1cc(-c2ccccc2)cc(C#N)c1=O
AC50 [8]: 6.89 µM (active) | AC50 [9]: 7.96 µM (active)

CCOC(=O)c1nc2cc3n(c(C)c-2c1C)C(C)C(CC)=C3C (configuration not stated)
AC50 [8]: 8.45 µM (active) | AC50 [9]: 7.97 µM (active) | AC50 [10]: 8.32 µM (active)

C=C1C(O)[C@@H]2O[C@]3(CC[C@H](/C=C/C(C)[C@@H]4CC(C)=CC5(O[C@H](C[C@@](C)(O)C(=O)O)CCC5O)O4)O3)CC[C@H]2O[C@@H]1C(O)CC(C)[C@H]1OC2(CCCCO2)CCC1C (some centres not stated)
IC50 [17]: > 80 µM (inactive) | AC50 [11]: < 0.195 µM (active) | IC50 [18]: 0.17 µM (active)

C=C(C)C1CC=C(C)/C(=N/NC(=O)CNc2ccc(C)cc2C)C1 (configuration not stated)
IC50 [5]: > 100 µM (inactive) | IC50 [7]: > 100 µM (not active)

c1ccc(CCNc2ccnc3cc4ccccc4cc23)cc1
AC50 [19]: 1.62 µM (active) | EC50 [20]: > 30 µM (not active) | AC50 [21]: 3.45 µM (active) | AC50 [8]: 94 µM (active) | EC50 [22]: 17.3 µM (active) | EC50 [23]: 1.68 µM (active) | AC50 [24]: 8.78 µM (active) | AC50 [9]: 11.2 µM (active) | AC50 [10]: 12.8 µM (active) | EC50 [25]: > 120 µM (not active) | EC50 [26]: 7.98 µM (active)
